In patent publication US12150940B2, “WASp-protecting small molecules, compositions, methods and uses thereof in the treatment of innate and acquired immune-related disorders or conditions” (BAR ILAN UNIVERSITY, priority 2016, dated 2024):

Legend:
[1] = molecular target: T1, human WASp (Homo sapiens, UniProt P42768, K230R/R34Q); assay: MicroScale Thermophoresis (MST) binding, YFP-WASp in HEK 293T cell lysate
T1 construct: expressed in transfected cells; host or cells: HEK 293T, transient transfection; unpurified cell lysate
T1 sequence (P42768 1-502 R34Q/K230R): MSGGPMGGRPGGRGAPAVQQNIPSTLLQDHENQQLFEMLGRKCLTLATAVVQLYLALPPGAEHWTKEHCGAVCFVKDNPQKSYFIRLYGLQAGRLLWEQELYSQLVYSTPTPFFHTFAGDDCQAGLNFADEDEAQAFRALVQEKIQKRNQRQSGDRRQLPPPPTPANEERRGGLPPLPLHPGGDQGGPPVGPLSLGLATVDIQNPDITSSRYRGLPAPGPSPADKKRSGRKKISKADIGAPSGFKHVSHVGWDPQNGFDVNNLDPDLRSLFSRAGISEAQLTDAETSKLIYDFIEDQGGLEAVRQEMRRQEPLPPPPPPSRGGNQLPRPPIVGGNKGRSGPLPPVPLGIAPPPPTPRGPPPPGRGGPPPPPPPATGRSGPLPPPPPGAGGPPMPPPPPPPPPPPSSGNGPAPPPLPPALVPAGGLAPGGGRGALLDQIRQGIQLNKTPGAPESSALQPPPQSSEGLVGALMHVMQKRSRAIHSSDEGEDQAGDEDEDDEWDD
Description: Diluted cell lysates of YFP-WASp/N-WASp/WAVE2-expressing HEK 293T cells were incubated with serially-diluted (100 μM-3 nM) SMCs. The mixed lysates and SMCs were then loaded into standard-treated Monolith™ capillaries and the fluorescence of the samples was measured by the Monolith NT.115 instrument at 60% MST power. Binding curves of WASp with SMC #6 (FIG. 3A), SMC #30 (FIG. 3B), SMC #33 (FIG. 3C), SMC #34 (FIG. 3D) and Y-27632 (FIG. 3E) or of N-WASp (FIG. 3F) or WAVE2 (FIG. 3G) with SMC #34 were generated by the NanoTemper Analysis 2.231 software. Normalized fluorescence (hot fluorescence/initial fluorescence) is plotted as a function of SMC concentration. […]
YFP-tagged WASp was obtained from cell lysates of Human Embryonic Kidney (HEK) 293T, transiently transfected with YFP-WASp/WAVE2/N-WASp by DNA-calcium phosphate co-precipitation as previously described (Reicher et al, 2012). […] After loading into the instrument (Monolith NT.115, NanoTemper), the samples were measured by standard protocols at 60% MST power. […] KD values were determined using the NanoTemper analysis software (NT Analysis 1.5.37 or 2.2.31).
Following this in silico screening, the inventors identified eight SMCs (#6, #23, #24, #25, #30, #32, #33, #34, see Table 1). […] The SMCs that specifically bind the degradation pocket of WASp were further evaluated by the inventors.

[2] = system: Jurkat T cells; assay: Lymphocyte migration on ICAM-1/SDF-1α-coated cover glasses; assay type: cell-based, human; settings: tracked over 20 min, mean ± SE
Description: Jurkat T cells were pretreated with DMSO or the indicated WASp-binding SMCs, and cell migration on ICAM-1/SDF-1α-coated cover glasses was tracked over a 20-min period, as described in Experimental procedures. Each line in FIG. 10A represents one cell. The tracks of five representative cells from each treatment are presented.
Error bars represent the SE from the mean. P values versus DMSO-treated control cells are presented and were calculated by two-tailed Student's t-test.
Approximately 1×10^5 lymphocytes were seeded over chambered coverslips (LabTek) pre-coated with 6 μg/ml ICAM-1 and 2 μg/ml SDF-1α. Cells were incubated at 37° C., 5% CO2 and DIC images were acquired with the Zeiss Observer Z1 inverted microscope every 5 s for 20 min under a 20× objective lens using Zen software. The random movement (Displacement and velocity) of the cells was automatically tracked and analyzed using TrackMate plugin of ImageJ software. An individual trace was assigned to each of the analyzed cells.
A common theme of active lymphocytes is their high migratory ability. This enables them to move within tissues and reach and engage target cells (Burkhardt et al, 2008). Because WASp plays a role in cellular motility, the ability of WASp-binding SMCs to effectively enhance the migration of lymphocytes was tested. The random movement of SMC-treated or control cells was automatically tracked and analyzed using live microscopy, as described in Experimental procedures.

[3] = system: PBMCs; assay: Lymphocyte activation in PBMCs (CD69 and activated LFA-1, flow cytometry); assay type: cell-based, human; settings: PBMCs stimulated with PMA and Ionomycin, vs control
Description: Figures show 1×10^6 PBMC cells/ml stimulated with PMA and Ionomycin that were treated with DMSO or WASp-binding SMCs. After incubation, the cells were stained with PE-Cy5™-conjugated mouse anti-human CD69 and lymphocyte activation was measured by flow-cytometry as described in the Experimental procedures. Histograms of DMSO versus SMC #6 (FIG. 8A), SMC #30 (FIG. 8B), SMC #33 (FIG. 8C), and SMC #34 (FIG. 8D) are presented and represent three independent experiments.
After incubation, the cells were stained with anti-activated LFA-1 antibody (KIM127), followed by staining with Alexa488-Fluor goat anti-mouse IgG1 secondary antibody, and lymphocyte activation was measured by flow-cytometry as described in the Experimental procedures. Histogram of negative control versus SMC #6 is presented.
PBMCs or Jurkat cells (about 3×10^5 cells) were incubated for 4 h, at 37° C. with 50 ng/ml PMA and 250 ng/ml lonomycin, or 40 ng/ml PMA and 6 μM Ionomycin, respectively, or left untreated. After incubation, the cells were collected and stained with 1 μg/ml anti-active human LFA-1 antibody (purified from KIM127 hybridoma sup, ATCC Cat #: CRL-2838, Sigma) for 30 min in 37° C., followed by staining with Alexa488-Fluor goat anti-mouse IgG1 secondary antibody (Molecular Probes, Cat #: A-21121), 30 min on ice. Cells were then co-stained with PE-Cy5™-conjugated mouse anti-human CD69 (BD Pharmingen, Cat #: 555532) to measure lymphocyte activation.
Lymphocyte activation is a hallmark of a normal immune response. To test whether treatment with WASp-binding SMCs could upregulate lymphocyte activation, freshly-isolated PBMCs were incubated with SMCs or control (solvent only) and stimulated with PMA and lonomycin. The cells were then stained with two different antibodies, which recognize two lymphocyte activation markers, CD69 and an epitope exposed at the active conformation of the integrin LFA-1 (KIM127). Both were detected by flow-cytometry.

[4] = molecular target: T2, WIP-WASp interaction (Homo sapiens, UniProt P42768, K230R/R34Q); assay: FRET analysis of WIP-WASp interaction in activated T-cells expressing CFP-WASp and YFP-WIP; assay type: cell-based; settings: anti-CD3 stimulatory coverslips, fixed after 5 min; mean ± SE
T2 construct: expressed in transfected cells
Description: FIG. 13A: Jurkat T cells stably expressing CFP-WASp and YFP-WIP were treated with WASp-binding SMC #6, SMC #30, SMC #33, SMC #34 or control. The cells were then plated on stimulatory coverslips (coated with an anti-CD3 antibody), and fixed after 5 min. Cells were imaged by confocal microscope, and FRET efficiency was measured by the donor-sensitized acceptor emission technology (see Experimental procedures for details).
FIG. 13B: graph summarizing the percentage FRET efficiency in cells plated on the stimulatory coverslips, with the indicated treatment. Data are from four independent experiments. Error bars represent the SE from the mean. P values were calculated by two-tailed Student's t-test.
Spreading assays were performed as previously described (Fried et al, 2014; Barda-Saad 2005). Briefly, T cells (2×10^6 cells/ml) were seeded on the bottom of chambered cover glasses (LabTek) that were pre-coated with anti-CD3 stimulatory monoclonal antibodies (10 μg/ml). The cells were incubated in imaging buffer [RPMI without phenol red containing 10% fetal calf serum (FCS) and 25 mM HEPES] at 37° C., 5% CO2, for the times indicated in the figure legends. Cells were fixed for 25 min with 4% paraformaldehyde in phosphate-buffered saline (PBS) and then were washed three times with PBS.
Double-color FRET was performed as described previously (Barda-Saad et al, 2005; Pauker, 2011, Pauker, 2012). […] The non-FRET components were calculated and removed with calibration curves derived from images of single-labeled cells containing CFP or YFP, as previously described (Barda-Saad et al, 2005). […] Bleed-through components were calculated as a function of the intensity of the expressed fluorescent proteins with data gathered from single-labeled cell lines. By using the intensity measured pixel by pixel through the different filter sets, as well as cross-talk elements that were isolated from the control, single-labeled cells, the measured FRET was corrected and the actual FRET efficiency at every pixel was determined. The relative FRET efficiency (FRETeff) was calculated on a pixel-by-pixel basis with the following equation: FRETeff=FRETcorr/(FRETcorr+donor)×100%, where FRETcorr is the pixel intensity in the corrected FRET image, and donor is the intensity of the corresponding pixel in the appropriate donor channel image. To increase the reliability of the calculations and to prevent low-level noise from distorting the calculated ratio, the inventors excluded pixels below 50 intensity units, as well as saturated pixels from the calculations, and set their intensities to zero. […] The FRET efficiency in the negative control system was measured and calculated in the same manner as that in the main experiment. […]

[5] = system: platelets; assay: Platelet intra-cellular calcium concentration (Indo-1-AM); assay type: cell-based, human; settings: TRAP-6 10 μM, vs solvent
Description: Freshly-isolated human platelets were incubated with either control DMSO or the indicated WASp-binding SMCs, specifically, SMC #6 (FIG. 11A), SMC #30 (FIG. 11B), SMC #33 (FIG. 11C) and SMC #34 (FIG. 11D). Platelets were stimulated with TRAP-6 and calcium levels were measured by spectrofluorometer, as described in Experimental procedures. Data are representative of three independent experiments.
Cells were incubated with 5 μM Indo-1-acetoxymethylester (Indo-1-AM, Teflabs) in Tyrode's buffer at 37° C. for 20 min. The cells were washed once, resuspended in Tyrode's buffer containing 10 mM HEPES and maintained at room temperature for 20 min. The cells were incubated at 37° C. for 5 min before measurements and then stimulated with 10 μM TRAP-6. The Ca^2+ influx was measured by spectrofluorometer using the Synergy 4 Microplate Reader (Bio Tek).
However, following receptor-mediated stimulation, platelets dramatically elevate their intra-cellular calcium concentrations, which in turn serve as signaling cues that evoke platelet effector functions, including platelet spreading, adhesion and aggregation (Varga-Sabo et al, 2009). Therefore, the ability of WASp-protecting SMCs to upregulate intra-cellular calcium accumulation in activated platelets was next tested. Freshly-isolated human platelets were incubated with SMC #6, #30, #33 and #34 or with the solvent (negative control). Following incubation, platelets were stimulated with thrombin receptor activator peptide TRAP-6 (10 μM) and calcium levels were measured by spectrofluorometer, using Indo-1-AM-based calcium assay as described in Experimental procedures.

T2 sequence (O43516 whole entry partner, one chain of several): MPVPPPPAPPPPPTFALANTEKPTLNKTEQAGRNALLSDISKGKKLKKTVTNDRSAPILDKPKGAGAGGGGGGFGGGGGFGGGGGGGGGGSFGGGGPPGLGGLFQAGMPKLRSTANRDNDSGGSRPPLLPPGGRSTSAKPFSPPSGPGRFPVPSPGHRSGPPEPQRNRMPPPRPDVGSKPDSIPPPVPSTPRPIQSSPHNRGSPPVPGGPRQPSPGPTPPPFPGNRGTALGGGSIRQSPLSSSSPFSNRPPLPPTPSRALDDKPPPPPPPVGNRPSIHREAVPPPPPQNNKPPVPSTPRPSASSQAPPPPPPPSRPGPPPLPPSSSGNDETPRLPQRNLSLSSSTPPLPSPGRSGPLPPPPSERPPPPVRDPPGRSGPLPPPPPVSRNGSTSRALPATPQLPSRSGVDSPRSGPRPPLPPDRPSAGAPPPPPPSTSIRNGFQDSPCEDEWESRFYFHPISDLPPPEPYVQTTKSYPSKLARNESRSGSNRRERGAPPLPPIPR

Compound | binding to WASp [1] | mean cell displacement [2] | lymphocyte activation (CD69, activated LFA-1) [3] | average FRET efficiency [4] [%] | intra-cellular calcium concentration in activated platelets [5]
C[C@@H](N)[C@H]1CC[C@H](C(=O)Nc2ccncc2)CC1 [Y-27632] | did not show binding |  |  |  | 
COC(=O)c1ccc2c(=O)n(Cc3ccc(C(=O)NC4CCCC4)cc3)c(=S)[nH]c2c1 [SMC #30, 3-(4-Cyclopentylcarbamoyl-benzyl)-4-oxo-2-thioxo-1,2,3,4-tetrahydro-quinazoline-7-carboxylic acid methyl ester] |  | 41.07±4.69 | upregulation of lymphocyte activation | 24.4±1.4 | dramatically enhanced
